Data as given in PMC12030426, “Translational Pharmacokinetic-Pharmacodynamic Modeling of a Novel Oral Dihydroorotate Dehydrogenase (DHODH) Inhibitor, HOSU-53 (JBZ-001)” (Pharmaceutics, 2025).
“Also recorded” adds a separate entry of the source.

What was measured:
[1] = noncompartmental PK in rats; assay type: in vivo
Text: (§1) Non-clinical PK of HOSU-53 has been studied and analyzed after single and multiple doses with noncompartmental analysis (NCA). […] F was similar between the two species, with mean values of approximately 60% and 50% in rats and dogs, respectively.

[2] = set-up: method as in PMID 38646934; settings: cited from earlier work
[3] = noncompartmental PK in dogs; assay type: in vivo
Text: as §1

pKa = assay type: physicochemical; settings: experimental data
Method: (§2) PBPK models were developed using PK-Sim v11.0 in rats and beagle dogs, and each was used to predict data in the other species, including mice. A base model was parameterized using lipophilicity, plasma protein binding, thermodynamic solubility, and pKa measured from in vitro studies. Half-life of HOSU-53 measured in beagle cryo-preserved hepatocytes was used along with hepatocyte incubation density within the In Vitro to In Vivo Extrapolation (IVIVE) tools in PK-Sim to estimate metabolic clearance in vivo [25]. Renal clearance of unbound plasma HOSU-53 was assumed to be driven solely by glomerular filtration rate (GFR). Various methods were used to calculate partition coefficients and cellular permeabilities in PK-Sim. PK predictions generated for each combination of calculation methods were compared to the mean observed IV profile, and the methods that best matched the observed data were selected. Ultimately, partition coefficients were calculated using the Rodgers and Rowland method, and cellular permeabilities were calculated using the charge-dependent Schmitt method. PK following oral administration of HOSU-53 was used to identify parameter values for intestinal permeability for the sodium and lysine salt forms administered in deionized (DI) water. […]

[4] = 28-day GLP repeat-dose toxicity study in rats
Method: A series of PK and PD studies was carried out using a range of single and repeat dosing regimens in rats, exploring variations in formulation and dosing schedules. The initial experiment evaluated the PK/PD profile following a single dose of 10 mg/kg PO and 3 mg/kg IV using 40% HPBCD. Building on the single-dose results, repeat dosing was investigated at 1 (both sexes), 3 (both sexes), 6 (females), and 10 (males) mg/kg (PO, QD) and 30 (both sexes) mg/kg (PO, BIWK) regimen in 40% HPBCD formulation. To extend the findings into a disease-relevant context, repeat dosing was evaluated for 14 days in a MOLM-13 xenograft model in the Sprague Dawley Rag2−/− Il2rg−/− (SRG) male rats, where doses of 1, 3, and 10 mg/kg (PO, QD) were administered, alongside 30 mg/kg biweekly (PO, BIWK).

thermodynamic solubility = assay type: physicochemical; settings: pH 6.5; experimental data
Method: as §2

[5] = set-up: method as in PMID 38646934; settings: cited from earlier work; remark: listed apart in the source
human DHODH = human DHODH (Homo sapiens, UniProt Q02127); set-up: method as in PMID 38646934; settings: cell-free; read-out: IC50 in cell-free human DHODH inhibition assay; cited from earlier work
plasma DHO [6] = assay: correlation of plasma DHO exposure with efficacy, tolerability and toxicity in repeat dose studies; assay type: in vivo, rats, dogs, and tumor-bearing mice; settings: based on preclinical experiments
Method: These GI toxicities are consistent with the high proliferative demand of intestinal epithelial cells, which rely on pyrimidine availability for DNA synthesis and repair. The No Observed Adverse Effect Levels (NOAELs) from the rat and dog GLP toxicity studies were then determined to be one dose level lower, which are 2.5 mg/kg (PO, QD) and 0.6 mg/kg (PO, QD), respectively. Based on repeat dose studies in rats, dogs, and tumor-bearing mice, efficacy, tolerability, and toxicity can be correlated with levels of the PD biomarker DHO in plasma.

[7] = population PK model, mouse; assay type: in vivo
Method: (§3) Population PK analyses were performed using nonlinear mixed-effects modeling implemented in Monolix software (Monolix Suite 2024R1, Antony, France). This approach utilizes the stochastic approximation of the expectation-maximization (SAEM) algorithm coupled with a Markov chain Monte Carlo (MCMC) method to optimize the likelihood. One- and two-compartment PK models incorporating zero- and first-order absorption with linear elimination were evaluated. Interindividual variability (IIV) in PK parameters was assumed to follow a log-normal distribution, except for bioavailability (F), which was modeled using a logit-normal distribution. An exponential model was applied, as described by the following equation: θi=θp×e^ηi where θi is the model predicted PK parameter for the ith animal, θp is the typical population PK parameter, and ηi is the random variable of normal distribution with mean zero and variance ω^2 .
(§4) Residual or random unexplained variability was evaluated using additive, proportional, and combined error models. For each model, several criteria were assessed, including the objective function value (OFV), Akaike Information Criterion (AIC), Bayesian Information Criterion (BIC), corrected Bayesian Information Criterion (BICc), and the precision of parameter estimates, expressed as residual standard errors.
The final structural PK models for both mouse and dog data were two-compartment disposition models with first-order absorption and linear elimination. We ultimately chose to exclude rat data from the population modeling effort, as described below in this section. The parameters for the final dog and mouse PK models are presented in Table 3 and Supplementary Table S3, respectively. All parameters were estimated with good precision, as indicated by the %RSE of the estimates. Proportional and combined error models were selected for the mouse and dog data, respectively.

[8] = noncompartmental PK in mice; assay type: in vivo
PPARγ = settings: cited from earlier work
plasma DHO [9] = assay: population PD model (indirect turnover, plasma DHO), mouse; assay type: in vivo
Method: (§5) To develop the PK/PD models, a sequential approach was tested for dog data, involving the initial construction of the PK model, fixing the PK parameters with population estimated thetas and eta variances, and then estimating the PD parameters. For mouse and rat data, a simultaneous approach was employed, estimating PK and PD parameters concurrently, assuming log-normal distribution for both. To account for the delay in PD response that results from the inhibition of DHODH, the factor controlling the dissipation of the response, various modeling approaches were employed. One approach involved using an effect compartment model with an equilibrium half-life parameter ( ke0 ) to characterize the delay,
(§6) The final PK/PD model for both species was an indirect turnover model with degradation inhibition. The parameters for the final dog and mouse PK/PD models are presented in Table 3 and Supplementary Table S3, respectively.

plasma DHO [10] = assay: population PD model (indirect turnover, plasma DHO), dog; assay type: in vivo
Method: as §5, §6

hERG ion channel = test system: hERG ion channel; set-up: method as in PMID 38646934; settings: cited from earlier work
[11] = test system: MOLM-13 cell line–derived xenograft; set-up: method as in PMID 38646934; settings: combined with other front-line therapies; cited from earlier work
[12] = in vitro hepatic stability assay scaled by IVIVE, rat; assay type: in vitro ADME; settings: scaled from in vitro hepatic stability assay
Method: as §2

PXR = test system: PXR; set-up: method as in PMID 38646934; settings: cited from earlier work
population PK model, dog = assay type: in vivo
Method: as §3, §4
During the development of the PK model for dogs, a two-compartment model was first constructed using IV data alone. […] This approach provided reasonable estimates for F and Ka, with acceptable RSE values (Table 3). […] The GOF plots for the final PK models of dog and mouse are presented in Figure 1 and Supplementary Figure S1, respectively.

[13] = 28-day GLP repeat-dose toxicity study in dogs
Method: The PK/PD characterization of HOSU-53 in beagle dogs was conducted across several studies. An initial single-dose PK/PD evaluation was carried out with male dogs receiving HOSU-53 (10 mg/kg, PO; 3 mg/kg, IV) in 40% HPBCD. Then, repeat-dose PK/PD over 7 days was assessed in male and female dogs with doses of 0.3, 1, and 3 mg/kg (PO, QD) in deionized water. […] Additional GLP toxicokinetic and toxicodynamic evaluations were performed, where dogs were dosed at 0.2, 0.6, and 1 mg/kg (PO, QD) for 28 days followed by a 14-day recovery period (Details in Supplementary Table S1).

human DHODH, sequence (Q02127 whole entry): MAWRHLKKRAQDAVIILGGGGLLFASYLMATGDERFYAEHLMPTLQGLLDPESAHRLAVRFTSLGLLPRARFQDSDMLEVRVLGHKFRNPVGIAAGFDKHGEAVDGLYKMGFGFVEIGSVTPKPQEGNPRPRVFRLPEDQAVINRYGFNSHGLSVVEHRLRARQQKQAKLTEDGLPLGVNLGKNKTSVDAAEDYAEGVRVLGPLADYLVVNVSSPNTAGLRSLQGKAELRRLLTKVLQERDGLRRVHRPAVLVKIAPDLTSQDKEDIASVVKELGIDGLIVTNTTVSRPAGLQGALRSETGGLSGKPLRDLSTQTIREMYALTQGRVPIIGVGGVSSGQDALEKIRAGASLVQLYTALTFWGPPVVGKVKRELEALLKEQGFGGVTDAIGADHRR

## CCCCOc1cccc(-c2ccc(-c3cc(C(=O)O)c4cc(F)ccc4n3)cc2)c1 [HOSU-53]
[1]; mean, NCA
  F: approximately 60%
[1]; repeated oral dosing, higher doses, dose range 3–10 mg/kg
  dose proportionality of plasma levels: less-than-dose-proportional manner
[2]
  micronucleus assay: negative
[3]; mean, NCA
  F: ~50%
[3]; repeated oral dosing, dose range 0.3–3 mg/kg
  dose proportionality of plasma levels: dose-proportional manner
pKa
  pKa (Acid): 3.05 (Acid)
  pKa (Base): 1.19 (Base)
[4]; male and female rats, 5 mg/kg PO, QD
  adverse effects: decreased lymphoid cellularity in the thymus, mild-to-moderate decreases in lymphocyte counts, and lower thymus weights
[4]; rats
  HNSTD or STD10: 5 mg/kg/day
[4]; rats, PO, QD, 28-day GLP
  NOAEL: 2.5 mg/kg
[4]; rats, preclinical toxicokinetic data
  maximum DHO concentration with no toxicity: ~ 2870 ng/mL
[4]; scaled by body surface area from rats (divided by 6.2)
  human equivalent dose (HED): 0.8 mg/kg/day
Thermodynamic solubility
  Solubility: 18.8 μg/mL (pH 6.5)
[5]
  Ames mutagenicity: negative
Human DHODH
  IC50: 0.00095 µM
Plasma DHO [6]
  AUCtau,ss of DHO at which optimal efficacy is expected: around 300 µM·h
[7]; bootstrap point estimate
  CL/F: 0.07 mL/h
  F (%): 54%
  Ka: 1.2 h⁻¹
  Q: 1.6 mL/h
  V1: 1.3 mL
  V2: 1.1 mL
[7]; model estimate (RSE %)
  CL/F: 0.07 (5.0) mL/h
  F (%): 0.53 (0.02) %
  Ka: 1.0 (0.02) /h
  Q: 1.6 (1.7) mL/h
  V1: 1.2 (8.7) mL
  V2: 1.2 (5.3) mL
[8]; NCA
  mean T1/2: 30 h
[8]; repeated oral dosing, higher doses, dose range 4–30 mg/kg
  dose proportionality of plasma levels: less-than-dose-proportional manner
[8]; single IV 3 mg/kg and oral 10 mg/kg, NCA
  F: 86%
PPARγ
  PPARγ agonism potency, fold less than potency against MOLM-13 AML cells in cell viability assays: 1500 ×
Plasma DHO [9]; bootstrap point estimate
  IC50: 1.61 µM
  Kout: 127 h⁻¹
  gamma: 1.63
Plasma DHO [9]; model estimate (RSE %)
  Kout: 155 (12.7) /h
  gamma: 1.71 (0.1)
Plasma DHO [9]; plasma HOSU-53 concentration, inhibition of DHO degradation, model estimate (RSE %)
  IC50: 1.55 µM
Plasma DHO [10]; bootstrap point estimate
  IC50: 0.08 µM
  Kout: 70 h⁻¹
  gamma: 1.86
Plasma DHO [10]; model estimate (RSE%)
  Kout: 52 (11.4) /h
  gamma: 1.9 (1.6)
Plasma DHO [10]; plasma HOSU-53 concentration, inhibition of DHO degradation, model estimate (RSE%)
  IC50: 0.1 µM
hERG ion channel
  hERG ion channel inhibition: does not induce PXR or inhibit the hERG ion channel
[11]
  survival: prolonged survival benefits
[12]
  Specific Clearance: 7.29 min⁻¹
PXR
  PXR induction: does not induce PXR
Population PK model, dog; bootstrap point estimate
  F (%): 0.67 fraction
  Ka: 1.55 h⁻¹
Population PK model, dog; model estimate (RSE%)
  F (%): 0.67 (2.8) %
  Ka: 1.53 (12.6) /h
Population PK model, dog; model estimate, fixed
  CL/F: 150 Fix mL/h
  Q: 400 Fix mL/h
  V1: 980 Fix mL
  V2: 490 Fix mL
[13]; all dogs, 28-day GLP study
  survival: survived until scheduled euthanasia
[13]; dogs
  HNSTD or STD10: 0.6 mg/kg/day
[13]; dogs, PO, QD, 28-day GLP
  NOAEL: 0.6 mg/kg
[13]; dogs, preclinical toxicokinetic data
  maximum DHO concentration with no toxicity: ~ 5850 ng/mL
[13]; female dogs, 1 mg/kg PO, QD, 1–2 h postdosing, weeks 1 and 4
  heart rate and RR interval: lower heart rate and longer RR interval duration
[13]; male and female dogs, 1 mg/kg PO, QD, 1 mg/kg
  adverse effects: decreased food consumption, lower body weights, and adverse intestinal microscopic findings related to mucosal epithelial cell loss; also recorded: decreased food consumption, lower body weights, and adverse intestinal (colon, ileum, and/or jejunum) microscopic findings related to mucosal epithelial cell loss
[13]; scaled by body surface area from dogs (divided by 1.8)
  human equivalent dose (HED): 0.3 mg/kg/day
